Results published in ChEMBL document CHEMBL1201862, “PubChem BioAssay data set” (2004).
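Step 1: Grow cells in 96-well plates. Step 2: Expose to compound for 48 hours at 5 concentrations. Step 3: Interpolate endpoints linearly; if unreached, use highest concentration. GI50 is the concentration that inhibits growth by half.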 Calls of active or inactive are those of the source. No stated cut-off is given here; in the data, active = GI50 up to about 1.1 µM and inactive = higher.

What was measured:
Test in all cases: inhibition of tumour cell growth, NCI panel, 48 h
[1] = test system: A498
[2] = test system: ACHN
[3] = test system: EKVX
[4] = test system: HOP-62
[5] = test system: Hs-578T
[6] = test system: IGROV-1
[7] = test system: K562
[8] = test system: M14
[9] = test system: MDA-N
[10] = test system: NCI-H522
[11] = test system: NCI/ADR-RES
[12] = test system: OVCAR-4
[13] = test system: SF-295
[14] = test system: SF-539
[15] = test system: SK-MEL-28
[16] = test system: SK-MEL-5
[17] = test system: SK-OV-3
[18] = test system: SNB-75
[19] = test system: TK-10
[20] = test system: UACC-62

Measured: GI50

O=c1[nH]c2cc([N+](=O)[O-])c(N/N=C/c3ccc(Cl)cc3Cl)c([N+](=O)[O-])c2[nH]1
inactive: [1] 14.3 µM | [2] 39.8 µM | [3] > 100 µM | [4] 59.6 µM | [5] 90.2 µM | [6] 25.1 µM | [7] 43.6 µM | [8] > 100 µM | [9] 7.48 µM | [10] 31.1 µM | [11] 15.5 µM | [12] 13.6 µM | [13] > 100 µM | [14] > 100 µM | [15] > 100 µM | [16] > 100 µM | [17] 30.1 µM | [18] > 100 µM | [19] 31.6 µM | [20] > 100 µM

Cn1c(N/N=C/c2ccccc2)nc(-c2ccc([N+](=O)[O-])cc2)c(C#N)c1=O
inactive: [1] 65.8 µM | [2] > 100 µM | [3] 66.7 µM | [4] 77.8 µM | [5] 55.1 µM | [6] 49.3 µM | [7] 1.61 µM | [8] > 100 µM | [9] 89.3 µM | [10] 23.1 µM | [11] 86.3 µM | [12] 29 µM | [13] 50.1 µM | [14] 69.2 µM | [15] > 100 µM | [16] 35.4 µM | [17] > 100 µM | [18] 88.5 µM | [19] 55 µM | [20] 27.9 µM

Cc1cccc(CC(Cc2ccc(C)cc2C(=O)O)C(=O)O)c1 (stereo not given)
inactive: [1] > 100 µM | [2] > 100 µM | [3] > 100 µM | [4] > 100 µM | [5] > 100 µM | [6] > 100 µM | [7] > 100 µM | [8] > 100 µM | [9] > 100 µM | [10] > 100 µM | [11] > 100 µM | [12] > 100 µM | [13] > 100 µM | [14] > 100 µM | [15] > 100 µM | [16] > 100 µM | [17] 74.1 µM | [18] > 100 µM | [19] > 100 µM | [20] 42 µM
